Measured values taken from patent publication US9017654B2, “Preparation for vaccination, vaccination method and use of a vaccination preparation” (priority 2004, dated 2015).

Key:
[1] = system: CFSE-marked syngenic spleen cells charged with SGP peptide (target cells for the CTLs); assay: In vivo killer assay; parameters: species or system mice; details: for specific reaction (FIG. 2, functionality of transcutaneously activated CTL): transcutaneous treatment, in vivo killer assay 6 days after immunisation
Experimental: The specific cytotoxic functionality of the activated cells was determined by means of what is known as an in vivo killer assays 6 days after the last immunisation. For this purpose spleen cells marked with CFSE (5,6-carboxyfluorescein diacetate succinimidylester, Molecular Probes) from syngenic mice were used as target cells for the cytotoxic T cells (CTLs). Half of the cells were dyed with 3 μM CFSE, the other half with 0.3 μM CFSE. The cells marked with 3 μM CFSE were charged with the synthetic SGP peptide (10 μM peptide; 40×10^6 cells per ml ISC medium; 1 h; 37° C.) and these were then washed twice with medium and twice with PBS. The cells marked with 0.3 μM CFSE were only incubated in ISC medium and also washed. The cells were mixed in a ratio of 1:1 and the mice were injected in vivo with 15×10^6 cells in 300 μl PBS in each case. After 18 h the mice were killed and the spleen cells removed and flow cytometrically analysed. The CFSE-positive cells were counted in a FACS-Canto flow cytometer. The specific lysis resulted from the ratio of cell counts of the cells charged with peptide and strongly marked with CFSE and the cells that were not charged with peptide and were weakly marked with CFSE. Since the two cell populations had been used in a ratio of 1:1 the number of cells not charged with peptide tallies with the original number of cells charged with peptide. The specific lysis is then calculated as follows:
[formula] [formula] CFSE Marking
The spleen cells were prepared as described above. Following ACK lysis the cells were resuspended in 10 ml PBS, counted and adjusted to 2×10^7 cells per ml. The cell suspension was mixed with an adequate volume of a 6 μM or 0.6 μM CFSE solution (in PBS) and incubated for 4 min at 37° C. The reaction was then stopped following addition of double the volume of ISC medium supplemented with 10% foetal calf serum (FCS). The cells were washed twice with FCS-free medium and counted.
To determine the functionality of the activated cells an in vivo killer assay was carried out 6 days after immunisation. For this purpose syngenic spleen cells marked with a high CFSE concentration were charged with peptide, mixed 1:1 with cells marked with a weak CFSE concentration and not charged with peptide and transferred i.v. into the mice. […] The fluorescence of the spleen cells in the FL-1 channel (CFSE) can be seen in each case. The lysis was calculated to the number of uncharged cells and is given in percent (B).
To determine the functionality of the activated cells an in vivo killer assay was carried out 6 days after immunisation. […] The fluorescence of the spleen cells in the FL-1 channel (CFSE) can be seen in each case. The specific lysis was calculated to the number of uncharged cells and is given in percent.

[2] = system: TCR transgenic cytotoxic T cells (CTL), CD45.1-positive CD8+; assay: Analysis of the number of adoptively transferred transgenic cytotoxic T cells (CTL) in blood/spleen after immunisation (flow cytometry); type: in vivo, mice
From the text: In this model a defined transgenic, which codes for a specific T cell receptor that recognises a specific MHC class I ligand ([…] (SEQ ID NO: 23); abbreviated to SGP) from the adenovirus type 5 in the context of MHC class I (H2-D^b), was introduced into mice. As already characterised by the inventors [“M. Hofmann, M. Radask, G. Rechtsteiner, K. Wiemann, M. Grander, U. Bien-Gräter, R. Offfringa, R.E.M. Toes, H.G. Rammensee, H. Schild; T cell avidity determines the level of CTL activation; Eur. J. Immunol. 2004: 34, 1798 to 1806”], the cytotoxic T cells (CTL) from these animals were only activated if they came into contact with this MHC class I ligand SGP in the context of H2-D^b. To be able to follow the activation of this CTL in the recipient animal the non-activated (naïve) CTL from transgenic donor mice was intravenously (i.v.) injected into syngenic recipient mice which differed in the allele of a lymphocyte marker (CD45.1 on transgenic cells or CD45.2 on cells of the recipient mice). […]
To measure the proliferation of the adoptively transferred cells blood was taken from the tail vein of the mice 4 days after the last immunisation and the blood sample was analysed flow cytometrically. […] For flow cytometric analysis of the cells they were stained with fluorescence-marked antibodies (anti-CD8 APC-Cy7-conjugated, anti-CD45.1 PE-conjugated (commercially available from Becton-Dickinson Pharmingen, Hamburg)) and, more precisely, for 30 min in 50 μl FACS buffer on ice in 96-well circular bottomed plates. The cells were washed twice with FACS buffer and analysed in a FACS-canto flow cytometer (Becton-Dickinson Pharmingen, Hamburg). […]
The transgenic CD8^+ cell content in the total population of CD8^+ cells was flow cytometrically determined in the blood or spleen. […] The fluorescence in the FL-2 channel (PE) of the CD8^+ lymphocytes can be seen in each case. […] In all mice the transgenic CD8^+ cells content prior to immunisation and 4 days after immunisation was determined in the spleen (A).

Compound	specific reaction (FIG. 2, functionality of transcutaneously activated CTL) [1]	% transgenic CD8+ in total CD8+, Day 4 Blood ([2]; Group 3: 50 μg peptide (i.d.) alone, day 4, blood)	% transgenic CD8+ in total CD8+, Day 6 Spleen ([2]; Group 3: 50 μg peptide (i.d.) alone, day 6, spleen)	increase in transgenic cells ([2]; peptide applied on its own (without additives, adjuvants))	Specific lysis (%) ([1]; Group 3: 50 μg peptide (i.d.) alone, 6 days after immunisation)	functional activation of the CTL ([1]; immunisation with peptide only (group Mouse 3), FIG. 1B)
CC(C)Cn1cnc2c(N)nc3ccccc3c21 [imiquimod, 1-(2-methylpropyl-)1H-imidazo[4,5-c]quinolin-4-amine, reference compound]	did not exhibit a specific reaction					
SGPSNTPPEI (Adenovirus type 5) [peptide, MHC class I ligand (H2-Db) from the E1A protein of adenovirus type 5, synthetically produced]	did not exhibit a specific reaction	4.38%	2.04%	only a marginal increase	3.51%	does not lead to functional activation
